Holding throughout (assay): cell-based
One assay deals with hNav1.7 (Homo sapiens, UniProt Q15858). The format is cell-based. The settings on record: IonWorks Quattro, use, […], read-out: IWQ Use Nav1.7.
The target in the next assay is hNav1.5 (Homo sapiens, UniProt Q14524). The settings on record: IonWorks Quattro, use, […], read-out: IWQ Use Nav1.5.
For a further assay, the target named is hNav1.3 (Homo sapiens, UniProt Q9NY46). Particulars: IonWorks Quattro, use, […], read-out: IWQ Use Nav1.3.

Read-outs that look alike come from different tables or passages of the source. Positions of bridges follow the written chain, without caps; N, C: chain ends. Non-standard residues stand in square brackets, D forms with d. Residues, ends and D or L forms follow the SMILES beside them. Phe(4-COOH) = N[C@@H](Cc1ccc(C(=O)O)cc1)C(=O)O; Arg(Me2s) = CN=C(NC)NCCC[C@H](N)C(=O)O; Phe(4-I) = N[C@@H](Cc1ccc(I)cc1)C(=O)O; Lys(Me2) = CN(C)CCCC[C@H](N)C(=O)O; NMeF = CN[C@@H](Cc1ccccc1)C(=O)O; 2Pal = N[C@@H](Cc1ccccn1)C(=O)O

This passage reports IC50 results from patent publication US9340590B2 (priority 2011, dated 2016).

hNav1.3, sequence (Q9NY46 whole entry, looked up): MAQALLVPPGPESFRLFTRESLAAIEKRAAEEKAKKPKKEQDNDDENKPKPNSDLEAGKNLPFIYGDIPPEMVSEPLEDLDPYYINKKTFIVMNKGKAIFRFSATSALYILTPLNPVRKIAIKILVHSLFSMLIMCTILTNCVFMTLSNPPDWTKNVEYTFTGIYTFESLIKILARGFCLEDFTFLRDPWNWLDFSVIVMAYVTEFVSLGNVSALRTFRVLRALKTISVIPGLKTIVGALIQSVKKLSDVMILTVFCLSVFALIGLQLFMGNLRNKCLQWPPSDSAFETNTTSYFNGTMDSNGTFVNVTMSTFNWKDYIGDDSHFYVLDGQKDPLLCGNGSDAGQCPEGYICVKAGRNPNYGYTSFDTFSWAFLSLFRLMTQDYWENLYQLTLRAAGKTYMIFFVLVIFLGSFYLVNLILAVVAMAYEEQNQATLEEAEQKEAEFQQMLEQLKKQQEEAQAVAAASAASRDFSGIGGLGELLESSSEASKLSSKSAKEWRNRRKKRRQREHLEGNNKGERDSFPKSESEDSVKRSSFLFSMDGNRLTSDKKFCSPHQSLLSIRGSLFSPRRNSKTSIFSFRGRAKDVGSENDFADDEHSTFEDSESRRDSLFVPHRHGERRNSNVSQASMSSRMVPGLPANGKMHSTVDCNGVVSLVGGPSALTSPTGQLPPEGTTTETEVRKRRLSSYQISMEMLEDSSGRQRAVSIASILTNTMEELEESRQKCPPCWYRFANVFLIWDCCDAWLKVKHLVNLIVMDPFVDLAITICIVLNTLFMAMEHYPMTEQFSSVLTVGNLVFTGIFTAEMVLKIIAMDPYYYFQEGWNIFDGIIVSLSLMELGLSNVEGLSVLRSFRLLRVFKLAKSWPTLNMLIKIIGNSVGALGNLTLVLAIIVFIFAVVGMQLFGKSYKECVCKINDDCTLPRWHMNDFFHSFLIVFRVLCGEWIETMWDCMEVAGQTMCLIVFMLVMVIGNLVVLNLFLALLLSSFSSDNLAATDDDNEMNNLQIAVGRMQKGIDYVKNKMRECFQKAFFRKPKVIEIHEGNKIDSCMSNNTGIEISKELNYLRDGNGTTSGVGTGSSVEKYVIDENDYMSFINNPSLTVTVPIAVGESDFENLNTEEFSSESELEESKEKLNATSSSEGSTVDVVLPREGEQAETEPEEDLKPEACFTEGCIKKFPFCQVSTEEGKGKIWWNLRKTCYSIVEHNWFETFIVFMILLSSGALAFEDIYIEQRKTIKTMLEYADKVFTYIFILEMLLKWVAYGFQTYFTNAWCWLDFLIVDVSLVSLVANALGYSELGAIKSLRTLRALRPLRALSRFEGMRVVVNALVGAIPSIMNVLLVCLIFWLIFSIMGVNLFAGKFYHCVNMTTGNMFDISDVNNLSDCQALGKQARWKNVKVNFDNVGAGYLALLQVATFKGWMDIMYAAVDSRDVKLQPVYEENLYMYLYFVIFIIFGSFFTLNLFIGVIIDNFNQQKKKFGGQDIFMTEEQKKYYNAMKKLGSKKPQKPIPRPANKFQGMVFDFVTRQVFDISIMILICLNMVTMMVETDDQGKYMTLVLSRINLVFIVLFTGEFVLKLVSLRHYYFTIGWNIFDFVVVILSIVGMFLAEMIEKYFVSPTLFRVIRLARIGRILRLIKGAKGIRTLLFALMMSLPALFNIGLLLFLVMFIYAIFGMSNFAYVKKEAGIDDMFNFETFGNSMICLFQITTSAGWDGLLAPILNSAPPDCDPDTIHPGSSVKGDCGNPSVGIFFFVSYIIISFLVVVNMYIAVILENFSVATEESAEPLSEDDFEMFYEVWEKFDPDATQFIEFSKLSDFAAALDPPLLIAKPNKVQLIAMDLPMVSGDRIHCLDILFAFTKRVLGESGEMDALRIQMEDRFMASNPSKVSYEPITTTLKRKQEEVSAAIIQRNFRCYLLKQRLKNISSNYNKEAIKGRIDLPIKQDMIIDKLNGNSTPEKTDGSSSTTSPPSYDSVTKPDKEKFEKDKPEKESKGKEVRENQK
hNav1.7, sequence (Q15858 whole entry, looked up): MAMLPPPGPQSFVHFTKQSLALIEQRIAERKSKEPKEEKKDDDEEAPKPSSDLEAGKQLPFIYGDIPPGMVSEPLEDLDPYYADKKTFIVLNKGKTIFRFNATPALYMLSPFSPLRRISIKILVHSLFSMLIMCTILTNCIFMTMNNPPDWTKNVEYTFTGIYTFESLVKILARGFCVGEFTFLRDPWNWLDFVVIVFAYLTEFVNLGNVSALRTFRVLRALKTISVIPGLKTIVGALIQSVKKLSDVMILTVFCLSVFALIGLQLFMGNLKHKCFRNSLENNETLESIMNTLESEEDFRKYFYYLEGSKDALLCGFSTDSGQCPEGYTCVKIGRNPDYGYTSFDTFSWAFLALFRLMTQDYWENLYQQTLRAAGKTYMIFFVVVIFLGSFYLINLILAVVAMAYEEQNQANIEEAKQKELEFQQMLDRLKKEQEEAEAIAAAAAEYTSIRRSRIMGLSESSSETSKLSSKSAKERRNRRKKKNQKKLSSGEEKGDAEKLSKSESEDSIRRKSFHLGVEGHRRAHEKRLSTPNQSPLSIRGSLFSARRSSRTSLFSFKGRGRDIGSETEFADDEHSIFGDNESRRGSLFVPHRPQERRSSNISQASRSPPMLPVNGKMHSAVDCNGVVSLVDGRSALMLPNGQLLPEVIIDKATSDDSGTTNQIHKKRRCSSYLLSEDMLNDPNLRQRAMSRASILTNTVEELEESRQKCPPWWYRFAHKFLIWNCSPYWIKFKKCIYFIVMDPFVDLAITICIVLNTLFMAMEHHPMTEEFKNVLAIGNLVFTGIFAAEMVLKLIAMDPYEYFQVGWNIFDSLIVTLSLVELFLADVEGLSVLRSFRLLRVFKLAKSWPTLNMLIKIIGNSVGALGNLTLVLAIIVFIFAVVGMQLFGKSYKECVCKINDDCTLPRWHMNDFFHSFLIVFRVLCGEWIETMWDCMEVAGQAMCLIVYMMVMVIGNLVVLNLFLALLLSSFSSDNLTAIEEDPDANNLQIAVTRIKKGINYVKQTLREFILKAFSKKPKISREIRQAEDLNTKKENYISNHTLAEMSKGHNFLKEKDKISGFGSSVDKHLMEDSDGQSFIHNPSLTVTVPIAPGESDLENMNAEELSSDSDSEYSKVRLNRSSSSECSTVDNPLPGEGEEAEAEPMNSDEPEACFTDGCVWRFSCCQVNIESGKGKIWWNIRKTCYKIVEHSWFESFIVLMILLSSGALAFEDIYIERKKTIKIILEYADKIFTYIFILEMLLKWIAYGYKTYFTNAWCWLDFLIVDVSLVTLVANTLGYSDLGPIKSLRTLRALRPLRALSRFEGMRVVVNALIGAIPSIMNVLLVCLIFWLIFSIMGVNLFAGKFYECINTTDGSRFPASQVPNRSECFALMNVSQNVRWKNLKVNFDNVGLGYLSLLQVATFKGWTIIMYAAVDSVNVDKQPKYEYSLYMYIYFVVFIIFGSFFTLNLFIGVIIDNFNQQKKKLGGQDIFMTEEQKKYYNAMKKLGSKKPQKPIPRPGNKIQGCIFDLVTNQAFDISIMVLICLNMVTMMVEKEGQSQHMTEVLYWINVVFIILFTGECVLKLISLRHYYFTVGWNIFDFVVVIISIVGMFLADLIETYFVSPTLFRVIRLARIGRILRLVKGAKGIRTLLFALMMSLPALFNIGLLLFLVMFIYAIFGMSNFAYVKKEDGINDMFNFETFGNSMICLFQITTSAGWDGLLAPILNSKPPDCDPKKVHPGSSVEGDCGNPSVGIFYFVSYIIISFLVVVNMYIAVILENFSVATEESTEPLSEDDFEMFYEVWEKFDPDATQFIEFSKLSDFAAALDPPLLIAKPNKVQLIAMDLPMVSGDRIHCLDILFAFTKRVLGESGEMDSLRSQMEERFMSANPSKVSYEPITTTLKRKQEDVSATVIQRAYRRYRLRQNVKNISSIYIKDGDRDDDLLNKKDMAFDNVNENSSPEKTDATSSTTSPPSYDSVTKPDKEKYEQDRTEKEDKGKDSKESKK

As to `CC[C@H](C)[C@@H]1NC(=O)[C@@H]2CSSC[C@@H]3NC(=O)[C@H](C(C)C)NC(=O)[C@H](CC(C)C)NC(=O)[C@H](CC(N)=O)NC(=O)[C@@H]4CCCN4C(=O)[C@H](CCCNC(=N)N)NC(=O)[C@H](CSSC[C@H](NC(=O)[C@@H](N)CC(=O)O)C(=O)N[C@@H](CC(C)C)C(=O)NCC(=O)N[C@@H](Cc4ccccc4)C(=O)N[C@@H](CCSC)C(=O)N[C@@H](CCCNC(=N)N)C(=O)N[C@@H](CCCCN)C(=O)N2)NC(=O)[C@H](CSSC[C@@H](C(=O)N[C@@H](CCCCN)C(=O)N[C@@H](Cc2ccc(O)cc2)C(=O)N[C@H](C(=O)N[C@@H](Cc2ccccc2)C(N)=O)C(C)C)NC(=O)[C@H](Cc2c[nH]c4ccccc24)NC(=O)[C@H](CCCCN)NC(=O)[C@H](Cc2c[nH]cn2)NC(=O)[C@H](Cc2ccc(C(=O)O)cc2)NC(=O)[C@H](CCCNC(=N)N)NC(=O)[C@H](CO)NC3=O)NC(=O)[C@H](CCCCN)NC(=O)[C@H](CC(=O)O)NC(=O)[C@H](CC(N)=O)NC(=O)[C@H](CC(=O)O)NC(=O)[C@@H]2CCCN2C1=O` [compound 350] (H-DCLGFMRKCIPDNDKCCRPNLVCSR[Phe(4-COOH)]HKWCKYVF-NH2; disulfide 2-17, 9-23, 16-30), the IC50 at hNav1.7 (Table 22) was determined as 0.4 µM; on hNav1.5 (Table 22) it was 6.46 µM; at hNav1.3 (Table 22), 2.62 µM.

For the compound `CC[C@H](C)[C@@H]1NC(=O)[C@@H]2CSSC[C@@H]3NC(=O)[C@H](C(C)C)NC(=O)[C@H](CC(C)C)NC(=O)[C@H](CC(N)=O)NC(=O)[C@@H]4CCCN4C(=O)[C@H](CCCNC(=N)N)NC(=O)[C@H](CSSC[C@H](NC(=O)[C@@H](N)CC(=O)O)C(=O)N[C@@H](CC(C)C)C(=O)NCC(=O)N[C@@H](Cc4ccccc4)C(=O)N[C@@H](CCSC)C(=O)N[C@@H](CCCNC(=N)N)C(=O)N[C@@H](CCCCN)C(=O)N2)NC(=O)[C@H](CSSC[C@@H](C(=O)N[C@@H](CCCCN)C(=O)N[C@@H](Cc2ccc(O)cc2)C(=O)N[C@H](C(=O)N[C@@H](Cc2ccccc2)C(N)=O)C(C)C)NC(=O)[C@H](Cc2c[nH]c4ccccc24)NC(=O)[C@H](CCCCN)NC(=O)[C@H](Cc2ccc(C(=O)O)cc2)NC(=O)[C@H]([C@@H](C)O)NC(=O)[C@H](CCCNC(=N)N)NC(=O)[C@H](CO)NC3=O)NC(=O)[C@H](CCCCN)NC(=O)[C@H](CC(=O)O)NC(=O)[C@H](CC(N)=O)NC(=O)[C@H](CC(=O)O)NC(=O)[C@@H]2CCCN2C1=O` [compound 351] (H-DCLGFMRKCIPDNDKCCRPNLVCSRT[Phe(4-COOH)]KWCKYVF-NH2; disulfide 2-17, 9-23, 16-30), the results for the IC50 on hNav1.7 (Table 23), on hNav1.5 (Table 23) and at hNav1.3 (Table 23) were 15.4 µM, 6.65 µM and 8.41 µM, respectively.

Turning to `CC[C@H](C)[C@@H]1NC(=O)[C@@H]2CSSC[C@@H]3NC(=O)[C@H](C(C)C)NC(=O)[C@H](CC(C)C)NC(=O)[C@H](CC(N)=O)NC(=O)[C@@H]4CCCN4C(=O)[C@H](CCCNC(=N)N)NC(=O)[C@H](CSSC[C@H](NC(=O)[C@@H](N)CC(=O)O)C(=O)N[C@@H](CC(C)C)C(=O)NCC(=O)N[C@@H](Cc4ccccc4)C(=O)N[C@@H](CCSC)C(=O)N[C@@H](CCCNC(=N)N)C(=O)N[C@@H](CCCCN)C(=O)N2)NC(=O)[C@H](CSSC[C@@H](C(=O)N[C@@H](CCCCN)C(=O)N[C@@H](Cc2ccc(O)cc2)C(=O)N[C@H](C(=O)N[C@@H](Cc2ccccc2)C(N)=O)C(C)C)NC(=O)[C@H](Cc2c[nH]c4ccccc24)NC(=O)[C@H](CCCCN)NC(=O)[C@H](Cc2ccccn2)NC(=O)[C@H]([C@@H](C)O)NC(=O)[C@H](CCCNC(=N)N)NC(=O)[C@H](CO)NC3=O)NC(=O)[C@H](CCCCN)NC(=O)[C@H](CC(=O)O)NC(=O)[C@H](CC(N)=O)NC(=O)[C@H](CC(=O)O)NC(=O)[C@@H]2CCCN2C1=O` [compound 352] (H-DCLGFMRKCIPDNDKCCRPNLVCSRT[2Pal]KWCKYVF-NH2; disulfide 2-17, 9-23, 16-30), the IC50 at hNav1.7 (Table 23) came out at 0.09 µM; on hNav1.5 (Table 23) it was 7.82 µM; on hNav1.3 (Table 23) it was 0.05 µM.

In the case of `CC[C@H](C)[C@@H]1NC(=O)[C@@H]2CSSC[C@@H]3NC(=O)[C@H](C(C)C)NC(=O)[C@H](CC(C)C)NC(=O)[C@H](CC(N)=O)NC(=O)[C@@H]4CCCN4C(=O)[C@H](CCCNC(=N)N)NC(=O)[C@H](CSSC[C@H](NC(=O)[C@@H](N)CC(=O)O)C(=O)N[C@@H](CC(C)C)C(=O)NCC(=O)N[C@@H](Cc4ccccc4)C(=O)N[C@@H](CCSC)C(=O)N[C@@H](CCCNC(=N)N)C(=O)N[C@@H](CCCCN)C(=O)N2)NC(=O)[C@H](CSSC[C@@H](C(=O)N[C@@H](CCCCN)C(=O)N[C@@H](Cc2ccc(O)cc2)C(=O)N[C@H](C(=O)N[C@@H](Cc2ccccc2)C(N)=O)C(C)C)NC(=O)[C@H](Cc2c[nH]c4ccccc24)NC(=O)[C@H](CCCCN)NC(=O)[C@H](CCCNC(=NC)NC)NC(=O)[C@H]([C@@H](C)O)NC(=O)[C@H](CCCNC(=N)N)NC(=O)[C@H](CO)NC3=O)NC(=O)[C@H](CCCCN)NC(=O)[C@H](CC(=O)O)NC(=O)[C@H](CC(N)=O)NC(=O)[C@H](CC(=O)O)NC(=O)[C@@H]2CCCN2C1=O` [compound 353] (H-DCLGFMRKCIPDNDKCCRPNLVCSRT[Arg(Me2s)]KWCKYVF-NH2; disulfide 2-17, 9-23, 16-30), the results for the IC50 at hNav1.7 (Table 23), at hNav1.5 (Table 23) and on hNav1.3 (Table 23) were 2 µM, 8.32 µM and 2.42 µM, respectively.

With `CC[C@H](C)[C@@H]1NC(=O)[C@@H]2CSSC[C@@H]3NC(=O)[C@H](C(C)C)NC(=O)[C@H](CC(C)C)NC(=O)[C@H](CC(N)=O)NC(=O)[C@@H]4CCCN4C(=O)[C@H](CCCNC(=N)N)NC(=O)[C@H](CSSC[C@H](NC(=O)[C@@H](N)CC(=O)O)C(=O)N[C@@H](CC(C)C)C(=O)NCC(=O)N[C@@H](Cc4ccccc4)C(=O)N[C@@H](CCSC)C(=O)N[C@@H](CCCNC(=N)N)C(=O)N[C@@H](CCCCN)C(=O)N2)NC(=O)[C@H](CSSC[C@@H](C(=O)N[C@@H](CCCCN)C(=O)N[C@@H](Cc2ccc(O)cc2)C(=O)N[C@H](C(=O)N[C@@H](Cc2ccccc2)C(N)=O)C(C)C)NC(=O)[C@H](Cc2c[nH]c4ccccc24)NC(=O)[C@H](CCCCN)NC(=O)[C@H](CCCCN(C)C)NC(=O)[C@H]([C@@H](C)O)NC(=O)[C@H](CCCNC(=N)N)NC(=O)[C@H](CO)NC3=O)NC(=O)[C@H](CCCCN)NC(=O)[C@H](CC(=O)O)NC(=O)[C@H](CC(N)=O)NC(=O)[C@H](CC(=O)O)NC(=O)[C@@H]2CCCN2C1=O` [compound 354] (H-DCLGFMRKCIPDNDKCCRPNLVCSRT[Lys(Me2)]KWCKYVF-NH2; disulfide 2-17, 9-23, 16-30), the IC50 is 7 µM on hNav1.7 (Table 23), 12.4 µM at hNav1.5 (Table 23) and 3.82 µM on hNav1.3 (Table 23).

Consider `CC[C@H](C)[C@@H]1NC(=O)[C@@H]2CSSC[C@@H]3NC(=O)[C@H](C(C)C)NC(=O)[C@H](CC(C)C)NC(=O)[C@H](CC(N)=O)NC(=O)[C@@H]4CCCN4C(=O)[C@H](CCCNC(=N)N)NC(=O)[C@H](CSSC[C@H](NC(=O)[C@@H](N)CC(=O)O)C(=O)N[C@@H](CC(C)C)C(=O)NCC(=O)N[C@@H](Cc4ccccc4)C(=O)N[C@@H](CCSC)C(=O)N[C@@H](CCCNC(=N)N)C(=O)N[C@@H](CCCCN)C(=O)N2)NC(=O)[C@H](CSSC[C@@H](C(=O)N[C@@H](CCCCN)C(=O)N[C@@H](Cc2ccc(O)cc2)C(=O)N[C@H](C(=O)N[C@@H](Cc2ccccc2)C(N)=O)C(C)C)NC(=O)[C@H](Cc2ccc(I)cc2)NC(=O)[C@H](CCCCN)NC(=O)[C@H](Cc2c[nH]cn2)NC(=O)[C@H]([C@@H](C)O)NC(=O)[C@H](CCCNC(=N)N)NC(=O)[C@H](CO)NC3=O)NC(=O)[C@H](CCCCN)NC(=O)[C@H](CC(=O)O)NC(=O)[C@H](CC(N)=O)NC(=O)[C@H](CC(=O)O)NC(=O)[C@@H]2CCCN2C1=O` [compound 358] (H-DCLGFMRKCIPDNDKCCRPNLVCSRTHK[Phe(4-I)]CKYVF-NH2; disulfide 2-17, 9-23, 16-30), for which the IC50 on hNav1.7 (Table 24) came out at 1.01 µM; at hNav1.5 (Table 24), 14.9 µM; at hNav1.3 (Table 24), 1.27 µM.

Regarding `CC[C@H](C)[C@@H]1NC(=O)[C@@H]2CSSC[C@@H]3NC(=O)[C@H](C(C)C)NC(=O)[C@H](CC(C)C)NC(=O)[C@H](CC(N)=O)NC(=O)[C@@H]4CCCN4C(=O)[C@H](CCCNC(=N)N)NC(=O)[C@H](CSSC[C@H](NC(=O)[C@@H](N)CC(=O)O)C(=O)N[C@@H](CC(C)C)C(=O)NCC(=O)N[C@@H](Cc4ccccc4)C(=O)N[C@@H](CCSC)C(=O)N[C@@H](CCCNC(=N)N)C(=O)N[C@@H](CCCCN)C(=O)N2)NC(=O)[C@H](CSSC[C@@H](C(=O)N[C@@H](CCCCN)C(=O)N[C@@H](Cc2ccc(O)cc2)C(=O)N[C@H](C(=O)N[C@@H](Cc2ccccc2)C(N)=O)C(C)C)NC(=O)[C@H](Cc2ccccc2)N(C)C(=O)[C@H](CCCCN)NC(=O)[C@H](Cc2c[nH]cn2)NC(=O)[C@H]([C@@H](C)O)NC(=O)[C@H](CCCNC(=N)N)NC(=O)[C@H](CO)NC3=O)NC(=O)[C@H](CCCCN)NC(=O)[C@H](CC(=O)O)NC(=O)[C@H](CC(N)=O)NC(=O)[C@H](CC(=O)O)NC(=O)[C@@H]2CCCN2C1=O` [compound 359] (H-DCLGFMRKCIPDNDKCCRPNLVCSRTHK[NMeF]CKYVF-NH2; disulfide 2-17, 9-23, 16-30), the IC50 was determined as 19.2 µM on hNav1.7 (Table 24), 18.8 µM at hNav1.5 (Table 24) and 7.39 µM at hNav1.3 (Table 24).
